From ChEMBL document CHEMBL1133517, “Design, radiosynthesis, and biodistribution of a new potent and selective ligand for in vivo imaging of the adenosine A(2A) receptor system using positron emission tomography” (J Med Chem, 2000)

What was measured:
Rattus norvegicus [1] = organism: Rattus norvegicus; assay: Biodistribution in rat testes after 30 min time interval; assay type: ADME, organism-based, Testis; conditions: in vivo, 0.5 h
Rattus norvegicus [2] = organism: Rattus norvegicus; assay: Biodistribution in rat plasma after 30 min time interval; assay type: ADME, organism-based; conditions: in vivo, 0.5 h
Rattus norvegicus [3] = organism: Rattus norvegicus; assay: Biodistribution in rat anti-CTX after 30 min time interval; assay type: ADME, organism-based; conditions: in vivo, 0.5 h
Rattus norvegicus [4] = organism: Rattus norvegicus; assay: Biodistribution in rat hypothalamus after 90 min time interval; assay type: ADME, organism-based; conditions: in vivo, 1.5 h
Rattus norvegicus [5] = organism: Rattus norvegicus; assay: Biodistribution in rat lung after 5 min time interval; assay type: ADME, organism-based; conditions: in vivo
Rattus norvegicus [6] = organism: Rattus norvegicus; assay: Biodistribution in rat intestine after 15 min time interval; assay type: ADME, organism-based; conditions: in vivo, 0.25 h
Rattus norvegicus [7] = organism: Rattus norvegicus; assay: Biodistribution in rat intestine after 60 min time interval; assay type: ADME, organism-based; conditions: in vivo, 1 h
Rattus norvegicus [8] = organism: Rattus norvegicus; assay: Biodistribution in rat thalamus after 60 min time interval; assay type: ADME, organism-based; conditions: in vivo, 1 h
Rattus norvegicus [9] = organism: Rattus norvegicus; assay: Biodistribution in rat trachea after 5 min time interval; assay type: ADME, organism-based; conditions: in vivo
Rattus norvegicus [10] = organism: Rattus norvegicus; assay: Biodistribution in rat hippocampus after 60 min time interval; assay type: ADME, organism-based; conditions: in vivo, 1 h
Rattus norvegicus [11] = organism: Rattus norvegicus; assay: Biodistribution in rat hippocampus after 30 min time interval; assay type: ADME, organism-based; conditions: in vivo, 0.5 h
Rattus norvegicus [12] = organism: Rattus norvegicus; assay: Biodistribution in rat adrenal after 5 min time interval; assay type: ADME, organism-based; conditions: in vivo
Rattus norvegicus [13] = organism: Rattus norvegicus; assay: Biodistribution in rat testes after 15 min time interval; assay type: ADME, organism-based, Testis; conditions: in vivo, 0.25 h
Rattus norvegicus [14] = organism: Rattus norvegicus; assay: Biodistribution in rat heart after 15 min time interval; assay type: ADME, organism-based; conditions: in vivo, 0.25 h
Rattus norvegicus [15] = organism: Rattus norvegicus; assay: Biodistribution in rat hippocampus after 5 min time interval; assay type: ADME, organism-based; conditions: in vivo
Rattus norvegicus [16] = organism: Rattus norvegicus; assay: Biodistribution in rat adrenal after 30 min time interval; assay type: ADME, organism-based; conditions: in vivo, 0.5 h
Rattus norvegicus [17] = organism: Rattus norvegicus; assay: Biodistribution in rat pituitary after 90 min time interval; assay type: ADME, organism-based; conditions: in vivo, 1.5 h
Rattus norvegicus [18] = organism: Rattus norvegicus; assay: Biodistribution in rat anti-CTX after 5 min time interval; assay type: ADME, organism-based; conditions: in vivo
Rattus norvegicus [19] = organism: Rattus norvegicus; assay: Biodistribution in rat intestine after 90 min time interval; assay type: ADME, organism-based; conditions: in vivo, 1.5 h
Rattus norvegicus [20] = organism: Rattus norvegicus; assay: Biodistribution in rat spleen after 15 min time interval; assay type: ADME, organism-based; conditions: in vivo, 0.25 h
Rattus norvegicus [21] = organism: Rattus norvegicus; assay: Biodistribution in rat liver after 15 min time interval; assay type: ADME, organism-based; conditions: in vivo, 0.25 h
Rattus norvegicus [22] = organism: Rattus norvegicus; assay: Biodistribution in rat kidney after 15 min time interval; assay type: ADME, organism-based; conditions: in vivo, 0.25 h
Rattus norvegicus [23] = organism: Rattus norvegicus; assay: Biodistribution in rat heart after 30 min time interval; assay type: ADME, organism-based; conditions: in vivo, 0.5 h
Rattus norvegicus [24] = organism: Rattus norvegicus; assay: Biodistribution in rat blood after 90 min time interval; assay type: ADME, organism-based; conditions: in vivo, 1.5 h
Rattus norvegicus [25] = organism: Rattus norvegicus; assay: Biodistribution in rat cerebellem after 5 min time interval; assay type: ADME, organism-based, Cerebellum; conditions: in vivo
Rattus norvegicus [26] = organism: Rattus norvegicus; assay: Biodistribution in rat post-CTX after 15 min time interval; assay type: ADME, organism-based; conditions: in vivo, 0.25 h
Rattus norvegicus [27] = organism: Rattus norvegicus; assay: Biodistribution in rat post-CTX after 5 min time interval; assay type: ADME, organism-based; conditions: in vivo
Rattus norvegicus [28] = organism: Rattus norvegicus; assay: Biodistribution in rat cerebellem after 15 min time interval; assay type: ADME, organism-based, Cerebellum; conditions: in vivo, 0.25 h
Rattus norvegicus [29] = organism: Rattus norvegicus; assay: Biodistribution in rat spleen after 30 min time interval; assay type: ADME, organism-based; conditions: in vivo, 0.5 h
Rattus norvegicus [30] = organism: Rattus norvegicus; assay: Biodistribution in rat pons after 60 min time interval; assay type: ADME, organism-based; conditions: in vivo, 1 h
Rattus norvegicus [31] = organism: Rattus norvegicus; assay: Biodistribution in rat thalamus after 30 min time interval; assay type: ADME, organism-based; conditions: in vivo, 0.5 h
Rattus norvegicus [32] = organism: Rattus norvegicus; assay: Biodistribution in rat heart after 90 min time interval; assay type: ADME, organism-based; conditions: in vivo, 1.5 h
Rattus norvegicus [33] = organism: Rattus norvegicus; assay: Biodistribution in rat muscle after 90 min time interval; assay type: ADME, organism-based, Muscle tissue; conditions: in vivo, 1.5 h
Rattus norvegicus [34] = organism: Rattus norvegicus; assay: Biodistribution in rat hippocampus after 15 min time interval; assay type: ADME, organism-based; conditions: in vivo, 0.25 h
Rattus norvegicus [35] = organism: Rattus norvegicus; assay: Biodistribution in rat thalamus after 5 min time interval; assay type: ADME, organism-based; conditions: in vivo
Rattus norvegicus [36] = organism: Rattus norvegicus; assay: Biodistribution in rat plasma after 5 min time interval; assay type: ADME, organism-based; conditions: in vivo
Rattus norvegicus [37] = organism: Rattus norvegicus; assay: Biodistribution in rat anti-CTX after 15 min time interval; assay type: ADME, organism-based; conditions: in vivo, 0.25 h
Rattus norvegicus [38] = organism: Rattus norvegicus; assay: Biodistribution in rat hypothalamus after 30 min time interval; assay type: ADME, organism-based; conditions: in vivo, 0.5 h
Rattus norvegicus [39] = organism: Rattus norvegicus; assay: Biodistribution in rat trachea after 15 min time interval; assay type: ADME, organism-based; conditions: in vivo, 0.25 h
Rattus norvegicus [40] = organism: Rattus norvegicus; assay: Biodistribution in rat trachea after 30 min time interval; assay type: ADME, organism-based; conditions: in vivo, 0.5 h
Rattus norvegicus [41] = organism: Rattus norvegicus; assay: Biodistribution in rat pituitary after 30 min time interval; assay type: ADME, organism-based, Pituitary gland; conditions: in vivo, 0.5 h
Rattus norvegicus [42] = organism: Rattus norvegicus; assay: Biodistribution in rat lung after 15 min time interval; assay type: ADME, organism-based; conditions: in vivo, 0.25 h
Rattus norvegicus [43] = organism: Rattus norvegicus; assay: Biodistribution in rat pituitary after 5 min time interval; assay type: ADME, organism-based, Pituitary gland; conditions: in vivo
Rattus norvegicus [44] = organism: Rattus norvegicus; assay: Biodistribution in rat cerebellem after 30 min time interval; assay type: ADME, organism-based, Cerebellum; conditions: in vivo, 0.5 h
Rattus norvegicus [45] = organism: Rattus norvegicus; assay: Biodistribution in rat thalamus after 90 min time interval; assay type: ADME, organism-based; conditions: in vivo, 1.5 h
Rattus norvegicus [46] = organism: Rattus norvegicus; assay: Biodistribution in rat liver after 5 min time interval; assay type: ADME, organism-based; conditions: in vivo
Rattus norvegicus [47] = organism: Rattus norvegicus; assay: Biodistribution in rat kidney after 90 min time interval; assay type: ADME, organism-based; conditions: in vivo, 1.5 h
Rattus norvegicus [48] = organism: Rattus norvegicus; assay: Biodistribution in rat adrenal after 60 min time interval; assay type: ADME, organism-based; conditions: in vivo, 1 h
Rattus norvegicus [49] = organism: Rattus norvegicus; assay: Biodistribution in rat kidney after 60 min time interval; assay type: ADME, organism-based; conditions: in vivo, 1 h
Rattus norvegicus [50] = organism: Rattus norvegicus; assay: Biodistribution in rat pituitary after 60 min time interval; assay type: ADME, organism-based, Pituitary gland; conditions: in vivo, 1 h

## [11CH3]Oc1ccc(CCCn2ncc3c2nc(N)n2nc(-c4ccco4)nc32)cc1
Rattus norvegicus [1]
  ID/g: 0.23%
Rattus norvegicus [2]
  ID/g: 0.08%
Rattus norvegicus [3]
  ID/g: 0.06%
Rattus norvegicus [4]
  ID/g: 0.02%
Rattus norvegicus [5]
  ID/g: 0.38%
Rattus norvegicus [6]
  ID/g: 0.28%
Rattus norvegicus [7]
  ID/g: 0.1%
Rattus norvegicus [8]
  ID/g: 0.02%
Rattus norvegicus [9]
  ID/g: 0.17%
Rattus norvegicus [10]
  ID/g: 0.02%
Rattus norvegicus [11]
  ID/g: 0.04%
Rattus norvegicus [12]
  ID/g: 0.85%
Rattus norvegicus [13]
  ID/g: 0.13%
Rattus norvegicus [14]
  ID/g: 0.15%
Rattus norvegicus [15]
  ID/g: 0.17%
Rattus norvegicus [16]
  ID/g: 0.25%
Rattus norvegicus [17]
  ID/g: 0.03%
Rattus norvegicus [18]
  ID/g: 0.18%
Rattus norvegicus [19]
  ID/g: 0.16%
Rattus norvegicus [20]
  ID/g: 0.12%
Rattus norvegicus [21]
  ID/g: 0.74%
Rattus norvegicus [22]
  ID/g: 0.49%
Rattus norvegicus [23]
  ID/g: 0.09%
Rattus norvegicus [24]
  ID/g: 0.05%
Rattus norvegicus [25]
  ID/g: 0.19%
Rattus norvegicus [26]
  ID/g: 0.1%
Rattus norvegicus [27]
  ID/g: 0.19%
Rattus norvegicus [28]
  ID/g: 0.1%
Rattus norvegicus [29]
  ID/g: 0.07%
Rattus norvegicus [30]
  ID/g: 0.02%
Rattus norvegicus [31]
  ID/g: 0.05%
Rattus norvegicus [32]
  ID/g: 0.04%
Rattus norvegicus [33]
  ID/g: 0.02%
Rattus norvegicus [34]
  ID/g: 0.09%
Rattus norvegicus [35]
  ID/g: 0.2%
Rattus norvegicus [36]
  ID/g: 0.19%
Rattus norvegicus [37]
  ID/g: 0.12%
Rattus norvegicus [38]
  ID/g: 0.04%
Rattus norvegicus [39]
  ID/g: 0.12%
Rattus norvegicus [40]
  ID/g: 0.09%
Rattus norvegicus [41]
  ID/g: 0.05%
Rattus norvegicus [42]
  ID/g: 0.52%
Rattus norvegicus [43]
  ID/g: 0.18%
Rattus norvegicus [44]
  ID/g: 0.05%
Rattus norvegicus [45]
  ID/g: 0.02%
Rattus norvegicus [46]
  ID/g: 0.94%
Rattus norvegicus [47]
  ID/g: 0.11%
Rattus norvegicus [48]
  ID/g: 0.13%
Rattus norvegicus [49]
  ID/g: 0.13%
Rattus norvegicus [50]
  ID/g: 0.02%
